In patent publication US20260191845A1, “PYRIDINE-2-THIOL 1-OXIDE DERIVATIVES AND THEIR USE FOR TREATMENT OF MAMMALIAN INFECTIONS CAUSED BY MYCOBACTERIUM OR FUNGI” (priority 2022, published 2026):

How the values were obtained:
[1] = tested on: IC1 M. tuberculosis MDR clinical isolate; assay: REMA MIC90, broad spectrum of microorganisms; type: cell-based; conditions: Mycobacterium tuberculosis, read-out: MIC to Compound 2
[2] = tested on: IC2 M. tuberculosis MDR clinical isolate; assay: REMA MIC90, broad spectrum of microorganisms; type: cell-based; conditions: Mycobacterium tuberculosis, read-out: MIC to Compound 2

SMILES: CCOC(=O)c1ccc([S-])[n+]([O-])c1.[Na+] [Compound 2, Sodium 5-(ethoxycarbonyl)pyridine-2-thiolate 1-oxide]
- MIC [1]: 25 µg/mL
- MIC [2]: 25 µg/mL
